Data reported in US5321024A, “Antiviral pharmaceutical composition for treating lymphocytes” (Godecke Aktiengesellschaft, priority 1991, dated 1994).

Columns and labels:
[1] = tested on: HIV viruses (cell line C8166); test: in vitro anti-HIV protection assay in cell line C8166; assay type: cell-based
Excerpt: (§1) This is usually substantially more difficult to protect so, for example, in the case of the use of 3-azide-3'-deoxythymidine (AZT), a 100-fold higher dosage is needed than in the use of the compound of the present invention.
(§2) The above assay is described in the Journal of the National Cancer Institute, Vol. 81, No. 8, Apr. 19, 1989.

HIV viruses = test: CPE cell line assay against p24 antigen; assay type: cell-based; conditions: Human immunodeficiency virus 1, in vitro
Excerpt: as §1, §2

reverse transcriptase = reverse transcriptase (Human immunodeficiency virus type 1 group M subtype B, UniProt P04585); test: inhibition of reverse transcriptase; assay type: biochemical; conditions: in vitro
Excerpt: as §1

[2] = tested on: HIV viruses (CEM-IW cell line); test: in vitro anti-HIV assay in CEM-IW cell line; assay type: cell-based; conditions: Human immunodeficiency virus 1
Excerpt: as §1, §2

[3] = tested on: HIV viruses (T-lymphocytes); test: protection of T-lymphocytes against the cytopathic effect of HIV viruses; assay type: cell-based

SMILES	dosage needed relative to the compound of the present invention ([1]; cell line C8166, higher dosage needed)	EC50 (HIV viruses)	IC50 (reverse transcriptase)	values found for the cell line C8166 compared with the other cell line values ([1]; cell line C8166, usually substantially more difficult to protect)	EC50 [2]	protection of T-lymphocytes against the cytopathic effect of HIV viruses [3]
Cc1cn([C@H]2C[C@H](N=[N+]=[N-])[C@@H](CO)O2)c(=O)[nH]c1=O [AZT, 3-azide-3'-deoxythymidine, reference compound]	100 fold	–	–	–	–	–
O=S1(c2ccccc2)=NC(=S)Nc2ccccc21 (stereo not drawn) [Example 1, 3,4-Dihydro-1-phenyl-3-thio-1,2,4-benzothiadiazine 1-oxide]	–	~1650 nM	2000 nM	comparable values	~2000 nM	complete protection
